According to patent US20250140406A1, “CLASSIFYING TUMORS AND PREDICTING RESPONSIVENESS” (Oncocyte Corporation, priority 2022, published 2025):
Where two headings read alike, the source gives them in different places.

System: cancer cell lines classified IM, MSL, M
Assay: PRISM screen compound sensitivity correlated with IM, MSL and M subtype of cell lines (101 gene signature)
Format: cell-based
[1] = subtype (IM, MSL or M) with which PRISM compound sensitivity is negatively correlated, training cell set, 101 gene signature
[2] = subtype (IM, MSL or M) assigned to the compound by negative correlation of PRISM sensitivity with subtype, training cell set (371 cell lines), 101 gene signature
[3] = subtype (IM, MSL or M) with which compound sensitivity is negatively correlated, training cell set (371 cell lines), 101 gene signature
[4] = subtype (IM, MSL, M) with which compound sensitivity correlates, test set
[5] = subtype (IM, MSL, M) with which compound sensitivity correlates, training set
[6] = subtype (IM, MSL or M) the PRISM compound sensitivity is associated with, training cell set (371 cell lines), 101 gene signature
[7] = subtype with which compound sensitivity correlates, test cell lines
[8] = subtype with which compound sensitivity correlates, training cell lines

Row | Structure (SMILES) | TNBCType train [1] | TNBCType train [2] | also measured
1 | Cc1ccc2c(=O)c3cccc(CC(=O)O)c3oc2c1C [ASA-404] | MSL |  | 
2 | Cc1cc(Nc2cc(N3CCN(C)CC3)nc(/C=C/c3ccccc3)n2)n[nH]1 [ENMD-2076] |  | MSL | 
3 | CN(C)c1cccc(-c2c3c(=O)n(-c4ccccc4Cl)[nH]c3cc(=O)n2C)c1 [GKT137831] |  | MSL | 
4 | CCCCOc1nc(N)c2c(n1)N(Cc1cccc(CN3CCCC3)c1)CC(=O)N2 [GS-9620] |  | MSL | 
5 | CC1=C(C(=O)Nc2cc3cn[nH]c3cc2F)C(c2ccc(C(F)(F)F)cc2)CC(=O)N1 (centres unmarked) [GSK429286A] |  |  | TNBCType train [3]: MSL
6 | O=C(O)CCc1ccc(NCc2cccc(Oc3ccccc3)c2)cc1 [GW-9508] |  | MSL | 
7 | CC(C)NC(=O)COc1cccc(-c2nc(Nc3ccc4[nH]ncc4c3)c3ccccc3n2)c1 [KD025] |  | MSL | 
8 | CC(O)c1cc(C(=O)N[C@@H](C)Cn2ccc(-c3ccc(C#N)c(Cl)c3)n2)[nH]n1 (some centres unmarked) [ODM-201] |  |  | TNBCType train [3]: MSL
9 | Nc1cc(F)ccc1NC(=O)/C=C/c1cnn(C/C=C/c2ccccc2)c1 [RGFP966] |  | MSL | 
10 | O=C(Nc1ccccc1F)N[C@H]1N=C(c2ccccc2)c2ccccc2NC1=O [RSV604] | MSL |  | TNBCType test [4]: MSL; TNBCType train [5]: MSL
11 | OC1CCC(Nc2nc(-c3ccccc3)nc3[nH]ccc23)CC1 (centres unmarked) [SLV-320] | MSL |  | 
12 | Cc1ccc(-c2ccc(C)cn2)nc1 [abametapir] |  | MSL | 
13 | CCOC(=O)COc1ccc2c(c1)C[C@@H](NC[C@H](O)c1cccc(Cl)c1)CC2 [amibegron] | MSL |  | 
14 | CC(CC(C(N)=O)(c1ccccc1)c1ccccc1)N(C)C (centres unmarked) [aminopentamide] |  |  | TNBCType train [3]: MSL
15 | CC1(C)S[C@@H]2[C@H](NC(=O)[C@H](N)c3ccccc3)C(=O)N2[C@H]1C(=O)O [ampicillin] |  | MSL | 
16 | Nc1ccn([C@H]2CO[C@@H](CO)S2)c(=O)n1 [apricitabine] |  | MSL | 
17 | CN1CC2c3ccccc3Oc3ccc(Cl)cc3C2C1 (centres unmarked) [asenapine] |  |  | TNBCType train [6]: MSL
18 | CCOC(=O)OC(C)OC(=O)[C@@H]1N2C(=O)[C@@H](NC(=O)[C@H](N)c3ccccc3)[C@H]2SC1(C)C (some centres unmarked) [bacampicillin] |  |  | TNBCType train [3]: MSL
19 | O=C(/C=C/c1ccc(O)c(O)c1)c1ccc(O)cc1O [butein] |  |  | TNBCType train [3]: MSL
20 | O=C(/C=C/c1ccc(O)c(O)c1)OCCc1ccccc1 [caffeic-acid-phenethyl-ester] |  |  | TNBCType train [6]: MSL
21 | CC(C)NCC(O)COc1cccc2[nH]c3ccccc3c12 (centres unmarked) [carazolol] |  |  | TNBCType train [3]: MSL
22 | CCN(CC)CCn1c(=O)c(Cc2ccc(OC)cc2)nc2ccccc21 [caroverine] |  | MSL | 
23 | CC(=O)OCC1=C(C(=O)O)N2C(=O)[C@@H](NC(=O)Cc3cccs3)[C@H]2SC1 [cephalothin] | MSL |  | 
24 | Oc1c(Cl)cc(Cl)c2cccnc12 [chloroxine] |  |  | TNBCType train [3]: MSL
25 | CC(C)NC(=N)NC(=N)Nc1ccc(Cl)c(Cl)c1 [chlorproguanil] | MSL |  | 
26 | CC(C)(Oc1ccc(Cl)cc1)C(=O)O [clofibric-acid] |  |  | TNBCType train [3]: MSL

Row | Structure (SMILES) | TNBCType train [1] | TNBCType train [2] | also measured
27 | N#CCC(=O)NN [cyacetacide] | MSL |  | 
28 | O=C1c2cccc(O)c2C(=O)c2c(O)cccc21 [dantron] |  |  | TNBCType train [3]: MSL
29 | CC[C@H](CC[C@@H](C)[C@H]1CC[C@H]2[C@@H]3CC=C4C[C@@H](O[C@@H]5O[C@H](CO)[C@@H](O)[C@H](O)[C@H]5O)CC[C@]4(C)[C@H]3CC[C@]12C)C(C)C [daucosterol] |  |  | TNBCType train [3]: MSL
30 | N=C(N)N1CCc2ccccc2C1 [debrisoquin] |  | MSL | 
31 | NS(=O)(=O)c1cc(Cl)c(Cl)c(S(N)(=O)=O)c1 [diclofenamide] |  | MSL | 
32 | Cc1ccc2c(c1)[C@]13CCCC[C@@H]1[C@H](C2)N(C)CC3 [dimemorfan] | MSL |  | 
33 | N[C@H](C(=O)O)[C@H](O)c1ccc(O)c(O)c1 [droxidopa] | MSL |  | 
34 | CSc1ccc(C(=O)c2[nH]c(=O)[nH]c2C)cc1 [enoximone] | MSL |  | 
35 | COc1cc(OC)cc(N(CCNC(C)C)c2ccc3ncc(-c4cnn(C)c4)nc3c2)c1 [erdafitinib] |  | MSL | TNBCType test [4]: MSL/M; TNBCType train [5]: MSL; TNBCType test [7]: MSL/M; TNBCType train [8]: MSL
36 | O=C(Cn1ccnc1[N+](=O)[O-])NCCO [etanidazole] |  |  | TNBCType train [6]: MSL
37 | COc1cc([C@@H]2c3cc4c(cc3[C@@H](O[C@@H]3O[C@@H]5CO[C@@H](C)O[C@H]5[C@H](O)[C@H]3O)[C@H]3COC(=O)[C@H]23)OCO4)cc(OC)c1OP(=O)(O)O [etoposide-phosphate] |  | MSL | 
38 | CC1=C(CC(=O)O)c2cc(F)ccc2/C1=C\c1ccc(S(C)(=O)=O)cc1 [exisulind] | MSL |  | 
39 | O=C(OCC(O)CO)c1ccccc1Nc1ccnc2c(C(F)(F)F)cccc12 (centres unmarked) [floctafenine] |  |  | TNBCType train [3]: MSL
40 | CCOC(=O)c1ncn2c1CN(C)C(=O)c1cc(F)ccc1-2 [flumazenil] |  |  | TNBCType train [6]: MSL
41 | O=C(O)c1ccccc1OP(=O)(O)O [fosfosal] | MSL |  | 
42 | O=C1NC(c2ccccc2)(c2ccccc2)C(=O)N1COP(=O)(O)O [fosphenytoin] | MSL |  | 
43 | CC(C)(CO)CCCCCCC(C)(C)CO [gemcadiol] | MSL |  | 
44 | O=c1[nH]cnc2nc[nH]c12 [hypoxanthine] |  |  | TNBCType train [3]: MSL
45 | Oc1ccc(C2=Cc3ccc(O)cc3OC2)cc1 [idronoxil] |  | MSL | 
46 | C[C@@H](c1nc(-c2ccc(C#N)cc2)cs1)[C@](O)(Cn1cncn1)c1cc(F)ccc1F [isavuconazole] |  |  | TNBCType train [3]: MSL
47 | CC(C(=O)O)c1cccc(C(=O)c2ccccc2)c1 (centres unmarked) [ketoprofen] |  |  | TNBCType train [3]: MSL
48 | COc1c2occc2c(OC)c2c(=O)cc(C)oc12 [khellin] |  | MSL | 
49 | COc1cc2nccc(Oc3ccc(NC(=O)NC4CC4)c(Cl)c3)c2cc1C(N)=O [lenvatinib] | MSL |  | 
50 | CCN1CCC[C@H]1CNC(=O)c1cc(S(N)(=O)=O)ccc1OC [levosulpiride] | MSL |  | 
51 | Cc1[nH]cnc1-c1ccc(Cl)cc1 [lofemizole] |  |  | TNBCType train [3]: MSL
52 | CNC(=O)c1cccc2cc(Oc3ccnc4cc(OCC5(N)CC5)c(OC)cc34)ccc12 [lucitanib] | MSL |  | 

Row | Structure (SMILES) | TNBCType train [1] | TNBCType train [2] | also measured
53 | O=P(O)(O)CP(=O)(O)O [medronic-acid] |  |  | TNBCType train [6]: MSL
54 | CC[C@H](C)C(=O)O[C@H]1CCC=C2C=C[C@H](C)[C@H](CC[C@@H]3C[C@@H](O)CC(=O)O3)[C@H]21 [mevastatin] |  |  | TNBCType train [6]: MSL; TNBCType test [7]: MSL; TNBCType train [8]: MSL
55 | CCCOc1ccc(S(=O)(=O)N2CCN(CCO)CC2)cc1-c1nc2c(CCC)cn(CC)c2c(=O)[nH]1 [mirodenafil] |  | MSL | 
56 | COCC(O)Cn1ccnc1[N+](=O)[O-] (centres unmarked) [misonidazole] |  |  | TNBCType train: MSL
57 | COC(=O)c1ccc2c(c1)NC(=O)/C2=C(\Nc1ccc(N(C)C(=O)CN2CCN(C)CC2)cc1)c1ccccc1 [nintedanib] | MSL |  | 
58 | O=c1[nH]c2ccccc2n1C1CCN(CCOc2ccccc2)CC1 [oxiperomide] |  |  | TNBCType test [4]: MSL/M
59 | COc1cccc(C(=O)CCN[C@@H](C)[C@H](O)c2ccccc2)c1 [oxyfedrine] |  | MSL | 
60 | CC(C)Oc1ccc(-c2nc(-c3cccc4c3CC[C@@H]4NCCO)no2)cc1C#N [ozanimod] | MSL |  | 
61 | CCCCN1CCC(CNC(=O)c2c3n(c4ccccc24)CCCO3)CC1 [piboserod] |  |  | TNBCType train [3]: MSL
62 | CC[C@@H]1/C=C(\C)C[C@H](C)C[C@H](OC)[C@H]2O[C@@](O)(C(=O)C(=O)N3CCCC[C@H]3C(=O)O[C@H](/C(C)=C/[C@@H]3CC[C@H](Cl)[C@H](OC)C3)[C@H](C)[C@@H](O)CC1=O)[C@H](C)C[C@@H]2OC [pimecrolimus] |  | MSL | 
63 | O=C(O)C[C@H](O)C[C@H](O)/C=C/c1c(C2CC2)nc2ccccc2c1-c1ccc(F)cc1 [pitavastatin] |  | MSL | 
64 | Cc1cn2nc([C@@H]3CCCCN3C(=O)c3cc(Cl)ccc3NS(C)(=O)=O)cc2nc1N1CC[C@H](N)C1 [presatovir] | MSL |  | 
65 | C=Cc1cc(O)cc2nc(-c3ccc(O)c(F)c3)oc12 [prinaberel] |  | MSL | 
66 | Cc1ccc2c(-c3ccccc3)nc(=O)n(C(C)C)c2c1 [proquazone] | MSL |  | 
67 | O=C(N[C@H]1CN2CCC1CC2)c1cnc2ccsc2c1O [pumosetrag] | MSL |  | 
68 | C[C@@H](c1nc(-c2ccc(C#N)cc2)cs1)[C@](O)(Cn1cncn1)c1ccc(F)cc1F [ravuconazole] |  |  | TNBCType train [3]: MSL
69 | C[C@]12CC[C@H](O)C[C@H]1CC[C@@H]1[C@@H]2CC[C@]2(C)[C@@H](c3ccc(=O)oc3)C[C@H]3O[C@]132 [resibufogenin] | MSL |  | TNBCType test [4]: MSL; TNBCType train [5]: MSL
70 | C[C@H]1CNCCCN1S(=O)(=O)c1cccc2cncc(F)c12 [ripasudil] | MSL |  | 
71 | CCn1nc(C)c2c1C(c1ccccc1)=NCC(=O)N2 [ripazepam] |  | MSL | 
72 | Cc1nc2n(c(=O)c1CCN1CCC(c3noc4cc(F)ccc34)CC1)CCCC2 [risperidone] |  |  | TNBCType train: MSL
73 | C=C[C@](C)(O)CC[C@@H]1[C@@]2(C)CCCC(C)(C)[C@@H]2CC[C@@]1(C)O [sclareol] |  |  | TNBCType train [3]: MSL
74 | CC(C)N(CCCCOCC(=O)NS(C)(=O)=O)c1cnc(-c2ccccc2)c(-c2ccccc2)n1 [selexipag] | MSL |  | 
75 | CC[C@H]1OC(=O)[C@@](C)(F)C(=O)[C@H](C)[C@@H](O[C@@H]2O[C@H](C)C[C@H](N(C)C)[C@H]2O)[C@](C)(OC)C[C@@H](C)C(=O)[C@H](C)[C@H]2N(CCCCn3cc(-c4cccc(N)c4)nn3)C(=O)O[C@]12C [solithromycin] | MSL |  | 
76 | O=C1C=CC[C@@H]2[C@H]3CCCN4CCC[C@@H](CN12)[C@@H]34 [sophocarpine] |  | MSL | 
